Measurements taken from patent US20190038588A1, “NOVEL CLASS OF COMPOUNDS FOR THE TREATMENT OF CARDIOVASCULAR DISEASE” (STICHTING KATHOLIEKE UNIVERSITEIT, priority 2016, published 2019).

Legend:
[1] = biological target: T1, HMG-CoA reductase (Homo sapiens, UniProt P04035); conditions: Kajinami K, 2003; Istvan ES, 2001; cited from earlier work
T1 sequence (P04035 1-888): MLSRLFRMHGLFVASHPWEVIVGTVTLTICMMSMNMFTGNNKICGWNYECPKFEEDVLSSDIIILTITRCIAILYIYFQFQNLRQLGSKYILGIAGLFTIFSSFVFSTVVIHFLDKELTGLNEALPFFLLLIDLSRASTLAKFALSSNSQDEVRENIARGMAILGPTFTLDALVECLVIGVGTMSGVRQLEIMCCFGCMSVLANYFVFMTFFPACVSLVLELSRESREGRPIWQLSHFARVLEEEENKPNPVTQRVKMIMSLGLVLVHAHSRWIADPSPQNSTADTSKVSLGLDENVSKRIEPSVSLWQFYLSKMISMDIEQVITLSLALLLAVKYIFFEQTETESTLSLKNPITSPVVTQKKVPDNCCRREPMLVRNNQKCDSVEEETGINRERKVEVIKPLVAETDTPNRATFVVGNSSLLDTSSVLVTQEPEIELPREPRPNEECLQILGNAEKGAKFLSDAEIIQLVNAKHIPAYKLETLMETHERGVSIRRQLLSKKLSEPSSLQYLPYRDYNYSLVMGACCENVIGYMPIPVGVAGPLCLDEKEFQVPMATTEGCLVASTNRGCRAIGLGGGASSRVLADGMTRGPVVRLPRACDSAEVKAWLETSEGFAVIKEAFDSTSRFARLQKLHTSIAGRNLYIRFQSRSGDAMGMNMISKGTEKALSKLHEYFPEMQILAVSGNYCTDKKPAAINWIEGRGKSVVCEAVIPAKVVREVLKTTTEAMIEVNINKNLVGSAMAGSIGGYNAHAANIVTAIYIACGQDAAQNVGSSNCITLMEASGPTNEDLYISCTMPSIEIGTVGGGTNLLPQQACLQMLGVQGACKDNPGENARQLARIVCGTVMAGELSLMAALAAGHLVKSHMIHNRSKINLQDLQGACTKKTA

[2] = biological target: T2, catalytic domain of the human HMG-CoA reductase (Homo sapiens, UniProt P04035); experiment: HMG-CoA reductase activity and inhibition assay (Sigma CS-1090 kit, NADPH oxidation at 340 nm); type: biochemical; conditions: for HMGR activity (% of control) Mean (SEM): compound at 300 nM, n = 3 independent experiments
T2 construct: containing the catalytic domain of the human HMG-CoA reductase; purchased Sigma-Aldrich CS-1090
T2 sequence (P04035 426-888 limits assumed): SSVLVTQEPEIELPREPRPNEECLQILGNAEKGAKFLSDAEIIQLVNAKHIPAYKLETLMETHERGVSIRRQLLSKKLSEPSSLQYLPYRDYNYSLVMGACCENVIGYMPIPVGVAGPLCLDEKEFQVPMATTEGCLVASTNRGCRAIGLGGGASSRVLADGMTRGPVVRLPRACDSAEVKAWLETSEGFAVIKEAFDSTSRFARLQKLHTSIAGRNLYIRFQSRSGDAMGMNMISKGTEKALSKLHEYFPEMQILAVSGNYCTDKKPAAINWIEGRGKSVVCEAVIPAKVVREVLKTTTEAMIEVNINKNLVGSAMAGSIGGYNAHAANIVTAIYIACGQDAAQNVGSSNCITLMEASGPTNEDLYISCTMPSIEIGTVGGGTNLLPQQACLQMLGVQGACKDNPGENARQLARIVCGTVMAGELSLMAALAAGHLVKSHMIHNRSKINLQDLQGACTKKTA
Method: The human HMG-CoA reductase activity and inhibition assays were performed using the HMG-CoA reductase Assay Kit from Sigma-Aldrich (Sigma CS-1090), containing the catalytic domain of the human HMG-CoA reductase. Enzyme activity was determined spectrophotometrically, measuring the oxidation of NADPH at 340 nm. The reaction mixture contained: 0.13 mM HMG-CoA, HMG-CoA reductase, and 50 mM Tris-HCl, (pH 7.5). After 15 min incubation at 37° C., the reaction was started with the addition of 0.13 mM NADPH, and monitored for 30 min. The enzyme activity was determined using the linear domain of the curve. These experiments were generally performed in small reaction volumes to increase throughput. Experiments in larger reaction volumes can improve reliability of obtained values, and are planned.

[3] = biological target: T3, mitochondrial complex III (Mus musculus, UniProt P00158); experiment: Complex III enzyme activity in mitochondrial fractions of C2C12 cells (cytochrome c reduction at 550 nm); type: biochemical; conditions: compound at 100 μM; background by antimycin A (2.5 μM); n = 3 independent experiments
T3 construct: the supernatant containing the mitochondria was pelleted at 14,000 g; endogenous in cells; host or cells: C2C12 cells, mitochondrial fraction
Method: C2C12 pellets of 20·10^6 cells were snap frozen in liquid nitrogen and kept at −80° C. until use. For preparation of the mitochondrial fractions, tissues and cells were homogenized, resuspended in 10 mM Tris-HCl (pH 7.6), and snap frozen in aliquots as follows: cells were resuspended in 10 mM Tris-HCl and pottered, and sucrose was added (215 mM). The lysate was cleared of unbroken cells by centrifugation (10 minutes 600 g) after which the supernatant containing the mitochondria was pelleted at 14,000 g for 10 minutes, resuspended in 10 mM Tris-HCl (pH 7.6), and snap frozen in aliquots. Complex III enzyme activity was measured spectrophotometrically in duplicate as described before by determination of the cytochrome c reduction at 550 nm (Janssen et al., 2007; Mourmans et al., 1997; Rodenburg, 2011). For these measurements the following substrates were used: decylubiquinol (300 μM) and cytochrome c (50 μM). Background substraction was based on decylubiquinol auto-oxidation rates for FIG. 2, and on antimycin A (2.5 μM) for table 4. The enzyme activity was determined using the linear domain of the curve. These experiments were generally performed in small reaction volumes to increase throughput. Experiments in larger reaction volumes can improve reliability of obtained values, and are planned.

| SMILES | HMGR activity (% of control) Mean (SEM) [2] | complex III activity (% of control) Mean (SEM) [3] | IC50 ([2]; dose-response curve of FIG. 2C, 95%-CI printed in the row below) | IC50 [1] |
| --- | --- | --- | --- | --- |
| O=C(O)C[C@H](O)C[C@H](O)/C=C/c1c(C2CC2)nc2ccccc2c1-c1ccc(F)cc1 [pitavastatine] | – | – | – | 7 nM |
| CCC(C)(C)C(=O)O[C@H]1C[C@@H](C)C=C2C=C[C@H](C)[C@H](CC[C@@H](O)C[C@@H](O)CC(=O)NO)[C@H]21 [simvastatin hydroxamic acid, (1S,3R,7S,8S,8aR)-8-((3R,5R)-3,5-dihydroxy-7-(hydroxyamino)-7-oxoheptyl)-3,7-dimethyl-1,2,3,7,8,8a-hexahydronaphthalen-1-yl 2,2-dimethylbutanoate] | 38.83 (5.19) % of control | 68.59 (5.73) % of control | 39 nM | – |
| CC(C)c1nc(N(C)S(C)(=O)=O)nc(-c2ccc(F)cc2)c1/C=C/[C@@H](O)C[C@@H](O)CC(N)=O [rosuvastatin amide, (3R,5S,E)-7-(4-(4-fluorophenyl)-6-isopropyl-2-(N-methylmethylsulfonamido)-pyrimidin-5-yl)-3,5-dihydroxyhept-6-enamide] | 81.57 (10.29) % of control | 94.39 (6.41) % of control | – | – |
| CCC(C)(C)C(=O)O[C@H]1C[C@@H](C)C=C2C=C[C@H](C)[C@H](CC[C@@H](O)C[C@@H](O)CC(=O)NC)[C@H]21 [simvastatin methylamide, (1S,3R,7S,8S,8aR)-8-((3R,5R)-3,5-dihydroxy-7-(methylamino)-7-oxoheptyl)-3,7-dimethyl-1,2,3,7,8,8a-hexahydronaphthalen-1-yl 2,2-dimethylbutanoate] | 92.40 (8.84) % of control | 50.43 (5.71) % of control | – | – |
| CC(C)c1nc(N(C)S(C)(=O)=O)nc(-c2ccc(F)cc2)c1/C=C/[C@@H](O)C[C@@H](O)Cc1nc(=O)o[nH]1 [rosuvastatin oxo-oxadiazole, N-(5-((3S,5S,E)-3,5-dihydroxy-6-(5-oxo-2,5-dihydro-1,2,4-oxadiazol-3-yl)hex-1-en-1-yl)-4-(4-fluorophenyl)-6-isopropylpyrimidin-2-yl)-N-methylmethane Sulfonamide] | 88.17 (4.21) % of control | 85.85 (10.62) % of control | – | – |

Now from value to molecule, other results behind:

| HMGR activity (% of control) Mean (SEM) [2] | complex III activity (% of control) Mean (SEM) [3] | IC50 ([2]; dose-response curve of FIG. 2C, 95%-CI printed in the row below) | SMILES | IC50 [1] |
| --- | --- | --- | --- | --- |
| 72.43 (4.97) % of control | 80.37 (5.13) % of control | – | CCC(C)(C)C(=O)O[C@H]1C[C@@H](C)C=C2C=C[C@H](C)[C@H](CC[C@@H](O)C[C@@H](O)Cc3nnn[nH]3)[C@H]21 [simvastatin tetrazole, (1S,3R,7S,8S,8aR)-8-((3R,5S)-3,5-dihydroxy-6-(1H-tetrazol-5-yl)hexyl)-3,7-dimethyl-1,2,3,7,8,8a-hexahydronaphthalen-1-yl 2,2-dimethylbutanoate] | – |
| 82.82 (12.67) % of control | 83.54 (5.98) % of control | – | CNC(=O)C[C@H](O)C[C@H](O)/C=C/c1c(-c2ccc(F)cc2)nc(N(C)S(C)(=O)=O)nc1C(C)C [rosuvastatin methylamide, (3R,5S,E)-7-(4-(4-fluorophenyl)-6-isopropyl-2-(N-methylmethylsulfonamido)-pyrimidin-5-yl)-3,5-dihydroxy-N-methylhept-6-enamide] | – |
| 86.12 (5.73) % of control | 134.50 (17.29) % of control | – | CC(C)c1nc(N(C)S(C)(=O)=O)nc(-c2ccc(F)cc2)c1/C=C/[C@@H](O)C[C@@H](O)c1nnn[nH]1 [rosuvastatin nor-tetrazole, N-(5-((3S,5R,E)-3,5-dihydroxy-5-(1H-tetrazol-5-yl)pent-1-en-1-yl)-4-(4-fluorophenyl)-6-isopropylpyrimidin-2-yl)-N-methylmethanesulfonamide] | – |
| 85.05 (10.36) % of control | 53.24 (1.53) % of control | – | CCC(C)(C)C(=O)O[C@H]1C[C@@H](C)C=C2C=C[C@H](C)[C@H](CC[C@@H](O)C[C@@H](O)CC#N)[C@H]21 [simvastatin nitrile, (1S,3R,7S,8S,8aR)-8-((3R,5S)-6-cyano-3,5-dihydroxyhexyl)-3,7-dimethyl-1,2,3,7,8,8a-hexahydronaphthalen-1-yl 2,2-dimethylbutanoate] | – |
